Source: ChEMBL document CHEMBL1159208, “The structures and cytotoxic properties of polyketide peroxides from a Plakortis sponge” (J Nat Prod, 1995)
Active and inactive are the calls of the source. No cut-off for these calls is given here.

Tested on: NCI60
Assay: Cytotoxicity against human NCI60 cells
Assay type: functional, cell-based

| SMILES | Activity |
| --- | --- |
| C[C@]1(CCCCCCCCCCc2ccccc2)C[C@@]2(C)OC(=O)C[C@H]2O1 | inactive |
| C[C@]1(CCCCCCCCc2ccccc2)CC[C@](C)(CCC(=O)O)OO1 | inactive |
